Patent US6967196B1, “Sulfonamide compounds and uses thereof” (Bristol-Myers Squibb Company, priority 1999, dated 2005)
Structures can show the parent of a compound that is named as a salt. Where two headings read alike, the source gives them in different places. One block for each molecule: values may come before it.

System: amyloid β production in transfected H4 (human neuroglioma) cells stably expressing APP constructs
Test: In vitro cell-based assay of inhibitors of amyloid β production (ELISA)
In short: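 Test agents are screened at 10-100 μM for about 16 hours on cells stably expressing wild-type or variant APP. Secreted Aβ is measured by ELISA and compared with control-treated cells.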

[1] = transfected H4 cells stably expressing APP constructs, approximately 16 hours incubation, amyloid β in medium by ELISA, read-out: ACTIVITY (IC50, inhibition of amyloid β production)
[2] = Homo sapiens, 16 h, transfected H4 cells stably expressing APP, approximately 16 hours incubation, amyloid β in medium by ELISA, read-out: ACTIVITY (IC50, inhibition of amyloid β production)
[3] = transfected H4 cells stably expressing APP, approx. 16 h incubation, amyloid β in medium by ELISA, read-out: ACTIVITY (IC50, inhibition of amyloid β production)
[4] = transfected H4 cells stably expressing APP, approximately 16 hours incubation, amyloid β in medium by ELISA, read-out: ACTIVITY (IC50, inhibition of amyloid β production)
[5] = Homo sapiens, 16 h, transfected H4 cells expressing APP, approximately 16 hours incubation, amyloid β in medium by ELISA, read-out: ACTIVITY (IC50, inhibition of amyloid β production)
[6] = Homo sapiens, 16 h, transfected H4 cells stably expressing APP constructs, approximately 16 hours incubation, amyloid β in medium by ELISA, read-out: ACTIVITY (IC50, inhibition of amyloid β production)

Molecule: 4-chloro-N-(2,5-difluorophenyl)-N-[3-[2-[4-chloro-N-(2,5-difluorophenyl)-N-[(3-amino)-1(R)-methylpropyl]benzenesulfonamide]-3,4-dioxo-1-cyclobutenyl)amine-1(R)- [Example 1139]
IC50 [1]: 100 to 500 nM

IC50 [2]: > 500 nM
Molecule: O=S(=O)(c1ccc(Cl)cc1)N(Cc1ccccc1CCCCO)c1ccccc1 [Example 1016, 4-chloro-N-[2-(4-hydroxybutyl)benzyl]-N-phenylbenzenesulfonamide]

IC50 [3]: 100 to 500 nM
Molecule: N-{2-[2-(1-{[(4-chlorophenyl)sulfonyl]-2,5-difluoroanilino}ethyl)phenoxy}ethyl}-N-ethyl-3-methyl-2-butenamide [Example 642]

Molecule: CC(C)C[S+]([O-])CCC[C@@H](C)N(c1cc(Cl)ccc1Cl)S(=O)(=O)c1ccc(Cl)cc1 (stereo partly drawn) [Example 1182]
IC50 [1]: ≤ 25 nM

Molecule: Cc1ccc(OCCCN2CCCCC2)c(CN(c2cc(F)ccc2F)S(=O)(=O)c2ccc(Cl)cc2)c1 [Example 232, 4-Chloro-N-(2,5-difluorophenyl)-N-{5-methyl-2-[3-(1-piperidinyl)propoxy]benzyl}benzenesulfonamide hydrochloride]
IC50 (read-out: ACTIVITY (inhibitory concentration IC50, inhibition of amyloid β production)): 25 to 50 nM

IC50 [3]: 100 to 500 nM
Molecule: N-{3-[2-(1-{[(4-chlorophenyl)sulfonyl]-2,5-difluoroanilino}ethyl)phenoxy]propyl}-2,3,4,5,6-pentafluorobenzamide [Example 742]

IC50 [4]: > 500 nM
Molecule: C[C@H](c1ccc(F)cc1CCCC(=O)O)N(c1cc(F)ccc1F)S(=O)(=O)c1ccc(Cl)cc1 [Example 1068, 4-[2-((1R)-1-{[(4-chlorophenyl)sulfonyl]-2,5-difluoroanilino}ethyl)-5-fluorophenyl]butanoic acid]

IC50 [5]: > 500 nM
Molecule: C[C@H](C(=O)NCc1ccc(F)c(F)c1)N(c1cc(Cl)ccc1F)S(=O)(=O)c1ccc(Cl)cc1 [Example 1334]

IC50 [3]: 100 to 500 nM
Molecule: N-{3-[2-(1-{[(4-chlorophenyl)sulfonyl]-2,5-difluoroanilino}ethyl)phenoxy]propyl}-N-methyl-3-nitrobenzamide [Example 737]

IC50 [5]: > 500 nM
Molecule: C[C@H](CCCOC(=O)NCCCn1ccnc1)N(c1cc(Cl)ccc1CO)S(=O)(=O)c1ccc(Cl)cc1 [Example 1290]

IC50 [4]: > 500 nM
Molecule: O=S1(=O)c2ccc(Cl)cc2-c2ccccc2N1Cc1ccccc1OCCCN1CCCCC1 [Example 948, 2-chloro-5-{2-[3-(1-piperidinyl)propoxy]benzyl}-6H-dibenzo]c,e][1,2]thiazine 5,5-dioxide hydrochloride]

IC50 [2]: 100 to 500 nM
Molecule: O=S(=O)(c1ccc(Cl)cc1)N(Cc1ccccc1OCCCN1CCCCC1)C1CCCC1 [Example 835, 4-chloro-N-cyclopentyl-N-{2-[3-(1-piperidinyl)propoxy]benzyl}benzenesulfonamide hydrochloride]

IC50 [4]: > 500 nM
Molecule: O=S(=O)(c1ccc(Cl)cc1)N(Cc1ccccc1OCCCN1CCCCC1)[C@H]1CC2CCC1C2 (stereo partly drawn) [Example 969, N-{(2S)-bicyclo[2.2.1]hept-2-yl]-4-chloro-N-{2-[3-(1-piperidinyl)propoxy]benzyl}benzenesulfonamide hydrochloride]

IC50 [2]: > 500 nM
Molecule: O=S(=O)(c1ccc(Cl)cc1)N(Cc1ccccc1OCCCS)c1ccccc1 [Example 1018, 4-chloro-N-phenyl-N-[2-(3-sulfanylpropoxy)benzyl]benzenesulfonamide]

Molecule: C[C@H](CCCS(C)(=O)=O)N(c1cc(Cl)ccc1CO)S(=O)(=O)c1ccc(S(C)(=O)=O)cc1 [Example 1230]
IC50 [1]: 25 to 50 nM

IC50 [3]: 100 to 500 nM
Molecule: N-{3-[2-(1-{[(4-chlorophenyl)sulfonyl]-2,5-difluoroanilino}ethyl)phenoxy]propyl}-2,2-diphenylacetamide [Example 784]

IC50 [2]: > 500 nM
Molecule: O=C(c1ccccc1Br)N1CCCCC1CCOc1ccccc1CN(c1cc(F)ccc1F)S(=O)(=O)c1ccc(Cl)cc1 (stereo not drawn) [Example 942, N-(2-{2-[1-(2-bromobenzoyl)-2-piperidinyl]ethoxy}benzyl)-4-chloro-N-(2,5-difluorophenyl)benzenesulfonamide]

IC50 [2]: > 500 nM
Molecule: O=S(=O)(c1ccc(Cl)cc1)N(Cc1cc(Cl)ccc1O)c1ccccc1 [Example 975, 4-chloro-N-(5-chloro-2-hydroxybenzyl)-N-phenylbenzenesulfonamide]

IC50 (Homo sapiens, 16 h, transfected H4 cells stably expressing APP, approx. 16 h incubation, amyloid β in medium by ELISA, read-out: ACTIVITY (IC50, inhibition of amyloid β production)): 100 to 500 nM
Molecule: CC(C)NC(=O)N(C)CCOc1ccccc1C(C)N(c1cc(F)ccc1F)S(=O)(=O)c1ccc(Cl)cc1 (stereo not drawn) [Example 695, 4-chloro-N-(2,5-difluorophenyl)-N-[1-(2-{2-[[(isopropylamino)carbonyl](methyl)amino]ethoxy}phenyl)ethyl]benzenesulfonamide]

Molecule: C[C@H](CCCNC(=O)Oc1ccccc1)N(c1cc(Cl)ccc1Cl)S(=O)(=O)c1ccc(Cl)cc1 [Example 1154, 4-chloro-N-(2,5-dichlorophenyl)-N-[4-[[(phenoxy)carbonyl]amino]-1-methylbutyl]benzenesulfonamide]
IC50 (Homo sapiens, transfected H4 cells stably expressing APP constructs, approximately 16 hours incubation, amyloid β in medium by ELISA, read-out: ACTIVITY (IC50, inhibition of amyloid β production)): 100 to 500 nM

IC50 [2]: > 500 nM
Molecule: C[C@H](c1ccc(F)cc1CCCO)N(c1cc(F)ccc1F)S(=O)(=O)c1ccc(Cl)cc1 [Example 1063, 4-chloro-N-(2,5-difluorophenyl)-N-((1R)-1-[4-fluoro-2-(3-hydroxypropyl)phenyl]ethyl}benzenesulfonamide]

IC50 [6]: 50 to 100 nM
Molecule: C[C@H](CCCN1CCCCC1CS(C)(=O)=O)N(c1cc(Cl)ccc1Cl)S(=O)(=O)c1ccc(Cl)cc1 (stereo partly drawn) [Example 1121, 4-chloro-N-(2,5-dichlorophenyl)-N-[4-[2-[(methylsulfonyl)methyl]-1-piperidinyl]-1(R)-methylbutyl]benzenesulfonamide]

IC50 [4]: > 500 nM
Molecule: N-{4-[2-(1-{[(4-chlorophenyl)sulfonyl]-2,5-difluoroanilino}ethyl)phenoxy]butyl}-N-ethylcyclopropanecarboxamide [Example 959]

IC50 [3]: 100 to 500 nM
Molecule: 2-[2-((1R)-1-{[(4-chlorophenyl)sulfonyl]-2,5-difluoroanilino}ethyl)phenyl]ethyl sec-butylcarbamate [Example 650]

IC50 (Homo sapiens, 16 h, Table B, transfected H4 cells stably expressing APP, approximately 16 hours incubation, amyloid β in medium by ELISA, read-out: ACTIVITY (inhibitory concentration IC50, inhibition of amyloid β production)): 25 to 50 nM
Molecule: CCN(CC)C(=O)CCCc1cc(F)ccc1[C@@H](C)N(c1cc(F)ccc1F)S(=O)(=O)c1ccc(Cl)cc1 [Example 223, 4-[2-((1R)-1-{[(4-chlorophenyl)sulfonyl]-2,5-difluoroanilino}ethyl)-5-fluorophenyl]-N,N-diethylbutanamide]

IC50 [2]: > 500 nM
Molecule: O=S(=O)(c1ccc(Cl)cc1)N(Cc1ccccc1OCCCCCN1CCCCC1)c1ccccc1 [Example 976, 4-chloro-N-phenyl-N-(2-{[5-(1-piperidinyl)pentyl]oxy}benzyl)benzenesulfonamide hydrochloride]

IC50 [2]: > 500 nM
Molecule: O=[N+]([O-])c1ccc(SCCCOc2ccccc2CN(c2cc(F)ccc2F)S(=O)(=O)c2ccc(Cl)cc2)cc1 [Example 997, 4-chloro-N-(2,5-difluorophenyl)-N-(2-{3-[(4-nitrophenyl)sulfanyl]propoxy}benzyl)benzenesulfonamide]

IC50 [6]: > 10000 nM
Molecule: O=S(=O)(c1ccc(Cl)cc1)N(Cc1cc(Cl)ccc1C#CCCO)c1ccccc1 [Example 1089, 4-chloro-N-[5-chloro-2-(4-hydroxy-1-butynyl)benzyl]-N-phenylbenzenesulfonamide]

Molecule: O=S1(=O)c2cccc3cccc(c23)N1Cc1ccccc1OCCCN1CCCCC1 [Example 1024, 2-{2-[3-(1-piperidinyl)propoxy]benzyl}-2H-naphtho[1,8-cd]isothiazol 1,1-dioxide hydrochloride]
IC50 [2]: > 500 nM

Molecule: C[C@H](C(=O)NCc1cc(F)ccc1F)N(c1cc(Cl)ccc1F)S(=O)(=O)c1ccc(Cl)cc1 [Example 1356]
IC50 (transfected H4 cells expressing APP, approximately 16 hours incubation, amyloid β in medium by ELISA, read-out: ACTIVITY (IC50, inhibition of amyloid β production)): > 500 nM
